Experiment [1] deals with CYPIR. Kind of experiment: Example II: in-water applied herbicidal mixtures, transplanted paddy rice, CYPIR. Format: in vivo, Cyperus iria L. (flatsedge. To be noted: 21 DAA.
The subject of experiment [2] is STEME. Kind of experiment: Example IV: postemergence foliar-applied herbicidal mixtures, cereal crops, STEME. Format: in vivo, Stellaria media (common chickweed). The conditions noted are these: alone, 8.75 gai/ha, 20-22 days. The procedure:
Seeds of the desired test plant species were planted in Sun Gro MetroMix 306 planting mixture, which typically has a pH of 6.0 to 6.8 and an organic matter content of about 30 percent, in plastic pots with a surface area of 103.2 square centimeters (cm^2). […] The plants were grown for 7-36 days in a greenhouse with an approximate 14 hour photoperiod which was maintained at about 18° C. during the day and 17° C. during the night.
Spray solutions of the second cereal herbicide and experimental compound mixtures were prepared by adding the stock solutions to the appropriate amount of dilution solution to form 12 mL spray solution with active ingredients in two- and three-way combinations.

SMILES strings stand for the structures.

For the compound `COc1c(Cl)ccc(-c2nc(C(=O)O)c(Cl)c(N)c2F)c1F` [Compound A Acid, 4-amino-3-chloro-6-(4-chloro-2-fluoro-3-methoxyphenyl)-5-fluoropyridine-2-carboxylic acid], the entries for the “Visual Weed Control (%) Obs” value in experiment [1] (8.75 gae/ha), in experiment [1] (17.5 gae/ha) and in experiment [1] (35 gae/ha) were 0%, 0% and 95%, respectively.

`COc1c(Cl)ccc(-c2nc(C(=O)OCc3ccccc3)c(Cl)c(N)c2F)c1F` [Compound A Benzyl Ester, benzyl ester of 4-amino-3-chloro-5-fluoro-6-(4-chloro-2-fluoro-3-methoxy-phenyl)pyridine-2-carboxylic acid]: in experiment [2], the “STEME Ob (observed value)” value is on record as 70%.

Values taken from patent US8912120B2, “Herbicidal compositions comprising 4-amino-3-chloro-5-fluoro-6-(4-chloro-2-fluoro-3-methoxyphenyl) pyridine-2-carboxylic acid or a derivative thereof and synthetic auxin herbicides” (Dow AgroSciences, LLC., priority 2012, dated 2014).
